The values below come from PubChem BioAssay (NCI).

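Five compound concentrations were applied to cells in 96-well plates for 48 hours; endpoints were derived by simple linear interpolation of the resulting dose-response curve. TGI: total growth inhibition.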 Some results are limits rather than exact numbers.

Broadly, the TGI is the concentration giving total growth inhibition.

What all share (assay): DTP human tumour cell line panel, 48 h
In experiment [1] the test system is EKVX NSCLC.
Experiment [2] deals with LXFL 529 NSCLC.
The test system of experiment [3] is SK-OV-3 ovarian.
Experiment [4] deals with HOP-18 NSCLC.
Experiment [5] relates to DLD-1 colon.
Experiment [6] concerns SK-MEL-28 melanoma.
Experiment [7] has as its system RXF-631 renal.
The subject of experiment [8] is KM20L2 colon.
The test system of experiment [9] is XF 498 CNS.
Experiment [10] concerns CCRF-CEM leukemia.
In experiment [11] the test system is DMS 273 small cell lung.
Experiment [12] deals with KM12 colon.
Experiment [13] deals with SNB-78 CNS.
Experiment [14] relates to M19-MEL melanoma.
Experiment [15] relates to DMS 114 small cell lung.
Experiment [16] relates to HS 578T breast.
The test system of experiment [17] is T-47D breast.

In the case of `CCOC(OCC)(OCC)C(Br)CC` (centres undefined), the TGI in experiment [1], in experiment [2], in [3], in experiment [4], in [5] and in experiment [6] was more than 100 µM in each case. For the same molecule, the TGI in experiment [7] is more than 100 µM; in experiment [8], more than 100 µM; in experiment [9], more than 100 µM; in experiment [10], more than 100 µM; in experiment [11], 34.5 µM; in experiment [12], more than 100 µM. The results for the TGI in experiment [13], in experiment [14] and in [15] were more than 100 µM, more than 100 µM and 25.3 µM, respectively.
Turning to `CC(=O)Nc1ccc2c(c1)C(=O)c1ccccc1-2`, the TGI in experiment [1], in experiment [2], in experiment [3], in [5], in experiment [6] and in experiment [8] was more than 100 µM each time. The TGI in experiment [10], in [11], in experiment [12], in [13], in experiment [14] and in experiment [15] was more than 100 µM throughout.
For the molecule `CCN(CC)c1ccc(Cl)c2c1C(O)(C(C)C)C2(C)C` (centres undefined), the TGI in experiment [2] turned out to be 31.5 µM; in experiment [3], 29.3 µM; in experiment [4], 27.3 µM; in experiment [5] it was 31.4 µM; in [6], 37.1 µM; in experiment [8], 27.8 µM. Further, the concentration for total growth inhibition (TGI) in experiment [10] amounted to 39.9 µM; in experiment [11], 29.5 µM; in [12], 28.4 µM; in experiment [13], 69.4 µM; in [14], 29.4 µM; in experiment [15], 36.5 µM.
Turning to `CCOc1ccc(OP2(=O)NC(=O)C=C(C)N2)cc1` (centres undefined), the TGI in experiment [1], in experiment [2], in experiment [3], in [4], in experiment [5] and in experiment [6] was more than 100 µM in each case. Besides, the TGI in experiment [7], in experiment [8], in experiment [9], in [10], in [11] and in [12] was more than 100 µM throughout. Further, the TGI in experiment [13], in [14] and in [15] was more than 100 µM throughout.
Turning to `Cc1nn(C(=O)Cc2ccccc2)c2c1C(c1ccc(/C=C/c3ccccc3)cc1)SC(N)=N2` (centres undefined), the TGI in [1], in [3], in [6], in [16], in experiment [17] and in experiment [10] was more than 100 µM throughout. The same molecule showed a total growth inhibition concentration (TGI) in [12] of more than 100 µM.
With `Cc1nc2ccc(S(=O)(=O)O)cc2c(=O)n1-c1ccc(C(=O)NN2C(=O)C(Cl)C2c2cccs2)cc1` (centres undefined), the TGI is 35.3 µM in [1]; more than 100 µM in experiment [3]; more than 100 µM in [6]; more than 100 µM in experiment [16]; more than 100 µM in [17]; more than 100 µM in experiment [10]. In experiment [12], this molecule registered a TGI of more than 100 µM.
For `COc1cc(S(=O)(=O)Nc2nc(-c3ccc(N=Cc4ccccc4O)cc3)cs2)ccc1Cl`, the TGI in experiment [1] is 86.8 µM; in experiment [3] it was more than 100 µM; in experiment [6], more than 100 µM; in experiment [16] it was more than 100 µM; in experiment [17], more than 100 µM; in experiment [10], more than 100 µM. In experiment [12], this molecule came in with a TGI of more than 100 µM.
For `Nc1ccc2c(=S)c3ccccc3[nH]c2c1`, the TGI was more than 100 µM in experiment [1]; 98.5 µM in experiment [3]; more than 100 µM in experiment [6]; more than 100 µM in experiment [16]; more than 59 µM in [17]; more than 95.4 µM in experiment [10]. The same molecule registered a TGI in experiment [12] of more than 100 µM.
Consider `NC(CCC(=O)O)C(=O)NC(Cc1ccc(N(CCCl)CCCl)cc1)C(=O)O` (centres undefined), for which the TGI in experiment [1], in experiment [3], in experiment [6], in experiment [16], in experiment [17] and in [10] was more than 100 µM in each case. In experiment [12], this molecule had a TGI of more than 100 µM.
As for `Cc1cc(C=O)c2c(=O)c3c(O)ccc(/C=C/C(C)C)c3oc2c1`, the TGI in experiment [2], in experiment [5], in experiment [6], in experiment [8], in experiment [11] and in experiment [12] was more than 100 µM in each case. Moreover, the TGI in experiment [14] and in experiment [15] was more than 100 µM each time.
Consider `C(=C\c1cc[n+](CCc2ccccc2)cc1)/c1ccccc1`, for which the TGI in [1] is more than 100 µM; in experiment [3], more than 100 µM; in [6], 26.8 µM; in [16], 54.6 µM; in [17], 71.7 µM; in experiment [10] it was 42.5 µM. Also, the TGI in experiment [12] was found to be 18.2 µM.
For the molecule `COC(=O)N/N=c1\cc(C(=O)Nc2ccc(C)c(C)c2)oc2cc(O)ccc12`, the TGI in experiment [1], in experiment [2], in experiment [3], in experiment [4], in [5] and in experiment [6] was more than 100 µM each time. The total growth inhibition concentration (TGI) in experiment [7], in experiment [8], in [9], in experiment [10], in experiment [11] and in experiment [12] was more than 100 µM each time. Moreover, the TGI in [13], in experiment [14] and in [15] was more than 100 µM each time.
Consider `COc1ccc(NC(=S)c2ccc([N+](=O)[O-])o2)cc1`, for which the TGI in [1] is 7.78 µM; in [3] it was 25.7 µM; in experiment [6], 12.5 µM; in [16], more than 43.1 µM; in experiment [17], 17.3 µM; in experiment [10], 8.66 µM. The same molecule gave a TGI in [12] of 3.55 µM.
Regarding `N#CCc1nc(-c2cc3ccccc3oc2=O)cs1`, the TGI in [1], in experiment [3], in [6], in experiment [16], in experiment [17] and in [10] was more than 100 µM in each case. In experiment [12], this molecule showed a TGI of more than 100 µM.
Take `CC1C(OS(=O)(=O)c2ccc3[nH]c(=S)sc3c2)CC2C3(C)CCC2(C(C)C(=O)O)C(O)C13` (centres undefined): the TGI in experiment [1] was more than 100 µM; in [3], more than 100 µM; in experiment [6], more than 100 µM; in [16], more than 100 µM; in experiment [17], 48.3 µM; in experiment [10], 65.5 µM. Besides, the TGI in [12] came out at 52.4 µM.
As for `COc1cc(CCN)c(OC)c(OC)c1`, the TGI in experiment [1], in experiment [3], in experiment [6], in experiment [16], in experiment [17] and in experiment [10] was more than 100 µM each time. This molecule registered a TGI in experiment [12] of more than 100 µM.
Turning to `CCCN1C(=O)CN(S(=O)(=O)c2ccc(Cl)cc2)C1=O`, the TGI in experiment [1], in experiment [3], in experiment [6], in [16], in experiment [17] and in experiment [10] was more than 100 µM in each case. Also, the TGI in experiment [12] was more than 100 µM.
`CN(/N=C/c1ccccn1)C1=NCCN1`: the TGI in experiment [1], in [3], in [6], in experiment [16], in experiment [17] and in [10] was more than 100 µM each time. The TGI in [12] is more than 100 µM.
As for `C=C1CC[C@@H]2[C@](C)(COC(=O)CCC(=O)OC)CCC[C@@]2(C)[C@@H]1CCC1=CC(=O)OC1`, the TGI in [1] was more than 100 µM; in experiment [3], more than 100 µM; in experiment [6] it was more than 100 µM; in [16], more than 100 µM; in experiment [17] it was 73 µM; in [10], 58.8 µM. Further, the TGI in [12] is more than 100 µM.
For the molecule `NCCc1ccc(S(=O)(=O)O)cc1[N+](=O)[O-]`, the TGI in [1], in [3], in [6], in [16], in experiment [17] and in experiment [10] was more than 100 µM each time. In addition, the TGI in experiment [12] was more than 100 µM.
Take `COC(=O)c1sc(=S)sc1SCc1cccc(CSc2sc(=S)sc2C(=O)OC)c1`: the TGI in experiment [1] is more than 100 µM; in [3], 51.3 µM; in experiment [6], more than 100 µM; in experiment [16], more than 100 µM; in [17] it was more than 100 µM; in experiment [10] it was more than 100 µM. The same molecule displayed a TGI in [12] of more than 100 µM.
For the molecule `COC(=O)c1c(C)cccc1C1CN=NC12Cc1cc(C)c(C)cc1C2=O` (centres undefined), the TGI in experiment [1], in [3], in experiment [6], in [16], in [17] and in experiment [10] was more than 100 µM throughout. Also, the TGI in experiment [12] was more than 100 µM.
Turning to `COC(=O)C1=C(OC)C(=P2(c3ccccc3)CC(c3ccccc3)=C2c2ccccc2)C(C(=O)OC)=C1C(=O)OC` (centres undefined), the TGI in experiment [1] was more than 100 µM; in [3], more than 100 µM; in [6], more than 100 µM; in experiment [16], more than 100 µM; in experiment [17], more than 51.5 µM; in experiment [10], 4.74 µM. In experiment [12], this molecule yielded a TGI of more than 100 µM.
On to `CCN(CC)/[N+]([O-])=N/OS(=O)(=O)N(C)C`, for which the TGI in experiment [1], in [3], in experiment [6], in experiment [16], in experiment [17] and in experiment [10] was more than 100 µM each time. The same molecule had a TGI in [12] of more than 100 µM.
Turning to `Cc1nc2ccc(N=Nc3c(C)noc3C)cc2[nH]1`, the total growth inhibition concentration (TGI) was more than 100 µM in experiment [1]; 56.7 µM in experiment [3]; more than 100 µM in experiment [6]; 58.4 µM in [16]; 15.2 µM in [17]; more than 100 µM in experiment [10]. Further, the TGI in experiment [12] is more than 100 µM.
Turning to `O=C(NC1CCCCC1)c1n[nH]nc1Cl`, the TGI in experiment [1], in [3], in [6], in experiment [16], in experiment [17] and in [10] was more than 100 µM throughout. Besides, the TGI in experiment [12] was more than 100 µM.
As for `CN(Cc1cccc2ccsc12)/N=C\c1ccc(Cl)cc1`, the TGI in experiment [1], in experiment [3], in experiment [6], in experiment [16], in experiment [17] and in experiment [10] was more than 100 µM in each case. The same molecule showed a TGI in experiment [12] of more than 100 µM.
